Measured values as given in US7011839B2, “Otic microbial combination for treatment of animals with ruptured tympanic membrane” (Baya Corporation, priority 2000, dated 2006).

Key:
Experiment in all cases: MIC of each active ingredient (NCCLS agar plates)
Type in all cases: cell-based
Malassezia = settings: at the concentrations tested
Description: (§1) An in vitro microbiology study of the combination of the Enrofloxacin (quinolone) and sulfadiazine was conducted on multiple canine otic pathogens. The study was conducted under the National Committee for Clinical Laboratory Standards (NCCLS) guidelines employing ATCC control organisms for each agar plate tested. Initially, minimum inhibitory concentrations (MICs) were established for each active ingredient.

Candida = settings: at the concentrations tested
Description: as §1

[1] = tested on: common dermal (otic) pathogens
Description: as §1

CCN1CCN(c2cc3c(cc2F)c(=O)c(C(=O)O)cn3C2CC2)CC1 [Enrofloxacin]
Effectiveness on Malassezia (Malassezia): not effective | Effectiveness on Candida (Candida): not effective | Activity on common dermal (otic) pathogens, based on MICs [1]: active
